Four compounds from patent US5922713A, “Inhibition of nitric oxide synthase” (priority 1997, dated 1999) can be followed below.

For series [1], the target named is rat neuronal nitric oxide synthase (Rattus norvegicus, UniProt P29476). Nature of the series: binding of tritiated tetrahydroaminobiopterin (Klatt et al.), affinity for rat neuronal nitric oxide synthase. The conditions noted are these: vs naturally occurring cofactor tetrahydrobiopterin. Here is the method:
These determinations are assayed with binding of tritiated tetrahydroaminobiopterin according to the method of Klatt et al., "The pteridine binding site of brain nitric oxide synthase," J.Biol.Chem., 269:13861-13866 (1994), the teachings of which are incorporated herein by reference.

Another series concerns the target murine inducible NOS (Mus musculus, UniProt P29477). Nature of the series: NO synthase activity, formation of tritiated citrulline from tritiated L-arginine (murine inducible). In kind it is biochemical. The conditions noted are these: 10 μM tetrahydrobiopterin, read-out: IC50 (50% inhibitory concentration), inhibition of stimulation of NOSs by tetrahydrobiopterin. Here is the method:
(§1) It has been discovered that C1' tetrahydroaminobiopterin inhibits the stimulation of NOSs by 10 μM tetrahydrobiopterin with an IC50 (50% inhibitory concentration) of 1 μM (rat neuronal NOS), or 7 μM (murine inducible NOS) as assayed by formation of tritiated citrulline from tritiated L-arginine according to Mayer, et al., "Molecular mechanisms of inhibition of porcine brain nitric oxide synthase by the antinociceptive drug 7-nitro-indazole," Neuropharmacology, 33:1253-1259 (1994), the teachings of which are incorporated herein by reference. In tissue culture tetrahydroaminobiopterin (I) reduced the formation of nitrites (a breakdown product of nitric oxide) when formation was triggered in murine NIH-3T3 by treatment with a combination of murine interferon-y (250 U/ml) and lipopolysaccharide (1 μg/ml) ("LPS"). […] In one embodiment, rat liver phenylalanine-4-hydroxylase was inhibited by 1 mM tetrahydroaminobiopterin only 30% irrespective of the tetrahydroaminobiopterin concentrations used (3-300 μM). IC50 of tetrahydroaminobiopterin (I) for sheep liver dihydropterin reductase is 20 μM, again irrespective of the tetrahydroaminobiopterin concentrations used.

The next series has as its system murine 3T3 fibroblasts. Nature of the series: nitrite formation by interferon-γ/LPS stimulated murine 3T3 fibroblasts (Example 2). Format: cell-based. The conditions noted are these: for inhibition at 7.8 µM: conc. 7.8 μM; for inhibition at 7.8 µM / inhibition at 15.6 µM / inhibition at 31.2 µM / inhibition at 62.5 µM: 48 hours; for inhibition at 15.6 µM: conc. 15.6 μM; for inhibition at 31.2 µM: conc. 31.2 μM; for inhibition at 62.5 µM: conc. 62.5 μM. As to the method:
Nitric oxide synthase is induced in 3T3 fibroblasts from mice (1×10^5 /ml) by a mixture of LPS (055:b5 from E. coli.), 1 μg/ml) and murine interferon-γ (50 U/ml). The cells were cultured with and without inhibitors for 48 hours, and nitrite was determined in culture supernatants as a measure of NO formation by the cells. The ratio of nitrite to nitrate, the second product of decomposition of NO, remains constant by treatment with the inhibitor. Nitrite determination was carried out using the Greiss Ilosvay's reagent, which was mixed with an equal volume of culture supernatant and the amount of dye formed was measured by UV absorption at 550 nm in a microplate reader.

Series [2] relates to rat liver phenylalanine-4-hydroxylase. The series can be described thus: inhibition of rat liver phenylalanine-4-hydroxylase. In kind it is biochemical. The conditions noted are these: 1 mM; irrespective of the tetrahydroaminobiopterin concentrations used (3-300 μM). Here is the method:
as §1

Series [3] deals with T1, recombinant rat neuronal NO synthase (Rattus norvegicus, UniProt P29476).
T1 construct: made in house
Nature of the series: NO synthase activity, formation of tritiated citrulline from tritiated L-arginine (rat neuronal). Format: biochemical. Here is the method:
as §1
NO synthase activity: NO synthase activity was measured as the formation of [2,3,4,5-^3 H]citrulline from L-[2,3,4,5-^3 H]arginine. This was conducted by the method of Mayer, et al., "Molecular mechanisms of inhibition of porcine brain nitric oxide synthase by the antinociceptive drug 7-nitro-indazole," Neuropharmacology, 33:1253-1259 (1994). Incubation mixtures (0.1 ml) contain 50 mM triethanolamine/HCl buffer, pH 7.0, 0.1 μg purified recombinant rat neuronal NO synthase (tetrahydrobiopterin-free, prepared according to the teachings of List et al., Biochem. J., 315:57-63 (1996)), the teachings of which are incorporated herein by reference., 0.1 mM L-2,3,4,5-^3 H]arginine (approx 6000 counts per minute). 0.5 mM CaCl2, 10 μg/ml calmodulin, 0.2 mM NADPH ([…], reduced form), 10 μM 6R-tetrahydrobiopterin, 0-1000 μM NO synthase inhibitor, 5 μM flavin adenine dinucleotide("FAD"), 5 μM flavin mononucleotide ("FMN"), and 0.2 mM 3-[3-chloramidopropyl)dimethylamonio]-1-propanesulfonate ("CHAPS"). After incubation for 10 minutes at 37° C., the reaction is stopped by the addition of 0.9 ml 20 mM sodium acetate buffer, pH 5.5, containing 1 mM L-citrulline. The mixture is then applied to ion exchange resin columns (Dowex AG50W-XB, Dow Chemical, Midland, Mich.), the eluate and 1 ml water for washing the column are collected. Next, 7 ml scintillation cocktail are added and the radioactivity is determined. The radioactivity detected by scintillation corresponds to the amount of L-citrulline formed in the NO synthase reaction.

A further series deals with 3T3 murine fibroblasts. The series can be described thus: in vitro toxicity screen in cultured 3T3 murine fibroblasts. Format: cell-based. The conditions noted are these: 250 μM, up to 48 hours. As to the method: (§2) The therapeutic use of C1' aminobiopterin is facilitated by its low toxicity, both in vitro and in vivo. A useful in vitro toxicity screen which is predictive of in vivo response was to use cultured 3T3 murine fibroblasts. […] In an in vivo test, intraperitoneal injection of a solution containing 10 mg of tetrahydroaminobiopterin (I) dihydrochloride caused no toxicity in Sprague-Dawley rats (240-250 g body weight).

Series [4] has as its target inducible murine nitric oxide synthase (Mus musculus, UniProt P29477). Nature of the series: binding of tritiated tetrahydroaminobiopterin (Klatt et al.), affinity for inducible murine nitric oxide synthase. The conditions noted are these: vs naturally occurring cofactor tetrahydrobiopterin.
Another series concerns NOSs. Nature of the series: specificity for NOSs. In kind it is biochemical. Here is the method:
as §1

In series [5] the test system is cultivated porcine endothelial cells. The series can be described thus: NOS inhibition in cultivated porcine endothelial cells. In kind it is cell-based. The conditions noted are these: Sus scrofa, Endothelial cell, read-out: IC50, inhibitory effect on NOS.
The next series deals with murine NIH-3T3. The series can be described thus: formation of nitrites triggered in murine NIH-3T3 by interferon-γ (250 U/ml) and LPS. Format: cell-based. As to the method:
as §1

For the next series, the system named is Sprague-Dawley rats. The series can be described thus: in vivo toxicity test, intraperitoneal injection in Sprague-Dawley rats. The conditions noted are these: 10 mg, rats 240-250 g body weight. Here is the method: as §2
Where [6] appears, read: conc. 0.01 μM, 10 μM 6R-tetrahydrobiopterin.
The mark [7] stands for this setting: conc. 0.1 μM, 10 μM 6R-tetrahydrobiopterin.
The mark [8] stands for this setting: conc. 1.0 μM, 10 μM 6R-tetrahydrobiopterin.
The mark [9] stands for this setting: conc. 3.0 μM, 10 μM 6R-tetrahydrobiopterin.
Setting [10] is: conc. 10 μM, 10 μM 6R-tetrahydrobiopterin.
[11] abbreviates: conc. 30 μM, 10 μM 6R-tetrahydrobiopterin.
[12] abbreviates: conc. 100 μM, 10 μM 6R-tetrahydrobiopterin.
Where [13] appears, read: conc. 1000 μM, 10 μM 6R-tetrahydrobiopterin.

Sequence of rat neuronal nitric oxide synthase (P29476 whole entry): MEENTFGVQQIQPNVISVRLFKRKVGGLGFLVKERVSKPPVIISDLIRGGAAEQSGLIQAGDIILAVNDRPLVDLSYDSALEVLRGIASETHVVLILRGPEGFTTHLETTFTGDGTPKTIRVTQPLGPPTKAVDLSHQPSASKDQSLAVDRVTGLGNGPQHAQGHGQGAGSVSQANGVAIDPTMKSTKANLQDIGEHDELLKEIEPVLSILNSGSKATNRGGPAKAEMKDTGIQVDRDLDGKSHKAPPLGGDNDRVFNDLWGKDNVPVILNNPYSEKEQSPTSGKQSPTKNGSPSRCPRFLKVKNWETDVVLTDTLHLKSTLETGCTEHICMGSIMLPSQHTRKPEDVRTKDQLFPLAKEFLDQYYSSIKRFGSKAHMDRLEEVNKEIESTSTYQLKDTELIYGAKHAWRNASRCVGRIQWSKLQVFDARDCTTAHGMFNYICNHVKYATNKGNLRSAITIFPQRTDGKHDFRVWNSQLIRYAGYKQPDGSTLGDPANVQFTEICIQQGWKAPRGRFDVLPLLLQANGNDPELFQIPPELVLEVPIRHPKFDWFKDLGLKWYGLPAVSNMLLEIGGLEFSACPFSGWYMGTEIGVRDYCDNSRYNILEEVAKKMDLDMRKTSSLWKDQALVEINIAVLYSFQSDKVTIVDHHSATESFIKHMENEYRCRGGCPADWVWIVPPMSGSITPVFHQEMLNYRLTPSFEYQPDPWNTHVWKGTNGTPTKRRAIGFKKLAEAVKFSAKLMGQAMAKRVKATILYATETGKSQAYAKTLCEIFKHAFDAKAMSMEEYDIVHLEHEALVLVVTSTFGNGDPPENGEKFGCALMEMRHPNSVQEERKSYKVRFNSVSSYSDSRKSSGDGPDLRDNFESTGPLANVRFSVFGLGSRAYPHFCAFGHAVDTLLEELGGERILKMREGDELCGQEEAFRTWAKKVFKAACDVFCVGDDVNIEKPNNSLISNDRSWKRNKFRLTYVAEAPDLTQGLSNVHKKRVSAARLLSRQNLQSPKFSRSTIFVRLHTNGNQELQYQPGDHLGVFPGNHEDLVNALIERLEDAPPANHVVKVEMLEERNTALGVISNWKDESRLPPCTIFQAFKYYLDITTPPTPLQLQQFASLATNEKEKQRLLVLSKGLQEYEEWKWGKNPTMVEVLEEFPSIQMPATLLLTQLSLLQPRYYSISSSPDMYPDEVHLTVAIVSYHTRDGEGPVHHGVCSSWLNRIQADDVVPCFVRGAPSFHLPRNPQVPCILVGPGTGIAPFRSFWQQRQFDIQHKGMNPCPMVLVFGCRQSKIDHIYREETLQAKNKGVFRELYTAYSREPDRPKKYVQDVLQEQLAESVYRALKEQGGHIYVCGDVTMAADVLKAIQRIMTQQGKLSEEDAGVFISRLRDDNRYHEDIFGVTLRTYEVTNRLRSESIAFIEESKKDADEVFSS

In the case of `C[C@H](O)[C@H](O)C1CNc2nc(N)nc(N)c2N1` (stereo partly drawn) [(I), 2,4-diamino-5,6,7,8-tetrahydro-6-(L-erythro-1,2-dihydroxylpropyl)pteridine], the “affinity for nitric oxide synthase relative to tetrahydrobiopterin (fold higher)” value in series [1] is given as “about 20 -fold”; in series [4], “about 2.5 -fold”. In addition, the IC50 was 7 µM at murine inducible NOS; 1 µM in series [3] (10 μM tetrahydrobiopterin, rat neuronal NOS, read-out: IC50 (50% inhibitory concentration), inhibition of stimulation of NOSs by tetrahydrobiopterin); 100 µM in [5]; 13 µM with murine NIH-3T3 (Mus musculus, NIH3T3, murine interferon-γ (250 U/ml) and LPS (1 μg/ml)). In the series with murine 3T3 fibroblasts (Mus musculus, Fibroblast, 7.5 μM), this compound had an inhibition at 7.5 µM of 44%. This compound also showed an inhibition at 7.8 µM in the series on murine 3T3 fibroblasts (Mus musculus, Fibroblast) of 44%. The compound also displayed an inhibition at 15.6 µM in the series with murine 3T3 fibroblasts (Mus musculus, Fibroblast) of 65%. Moreover, in the series on murine 3T3 fibroblasts (Mus musculus, Fibroblast), the inhibition at 31.2 µM came to 77%. Besides, testing at 62.5 µM in the series on murine 3T3 fibroblasts (Mus musculus, Fibroblast) gave an inhibition of 88%. Further, the “NO synthase inhibitor potency compared with (III)” value in the series with murine 3T3 fibroblasts (compared with (III)) is reported as “more potent NO synthase inhibitor”. Also, the “inhibition of phenylalanine-4-hydroxylase” value in [2] was 30%. Besides, the NO synthase activity in series [3] (setting [6]) stood at 279 nmol/mg/min; in series [3] (setting [7]), 262 nmol/mg/min; in [3] (setting [8]), 181 nmol/mg/min; in series [3] (setting [9]), 125 nmol/mg/min; in series [3] (setting [10]) it was 72 nmol/mg/min; in series [3] (setting [11]) it was 50 nmol/mg/min. Also, the NO synthase activity worked out at 35 nmol/mg/min in series [3] (setting [12]) and 24 nmol/mg/min in [3] (setting [13]). In addition, the inhibition at 3 µM in [3] (setting [9]) stood at 58%. Moreover, in series [3] (setting [11]), the inhibition at 30 µM came to 83%. The cytotoxicity result in the series on 3T3 murine fibroblasts is recorded as “no cytotoxicity”. Besides, the “specificity for NOSs” value with NOSs is “highly specific for NOSs”. Also, in the series with murine NIH-3T3 (murine NIH-3T3, nitrite formation test), the cellular toxicity entry is given as “without apparent cellular toxicity”.
Consider `C[C@H](O)[C@H](O)C1CNc2nc(N)nc(N)c2N1` (stereo partly drawn), for which, in the series with Sprague-Dawley rats, the toxicity in vivo entry is on record as “no toxicity”.
For `Nc1nc(N)c2c(n1)NCC(CO)N2` (stereo not drawn) [(III), 2,4-diamino-5,6,7,8-tetrahydro-6-hydroxymethyl pteridine, reference compound], the activity in words result with murine 3T3 fibroblasts (7.5 μM) was “no activity”. In addition, in the series on murine 3T3 fibroblasts (Mus musculus, Fibroblast), the inhibition at 7.8 µM is 0%, testing at 15.6 µM gave an inhibition of 8%, testing at 31.2 µM gave an inhibition of 16% and 62.5 µM produced 50% inhibition. In series [3] (setting [6]), the NO synthase activity came to 325 nmol/mg/min and the inhibition at 0.01 µM was determined as 3%. Also, in series [3] (setting [7]), the NO synthase activity is listed as 318 nmol/mg/min and the inhibition at 0.1 µM was found to be 5%. In addition, in series [3] (setting [8]), the NO synthase activity turned out to be 306 nmol/mg/min and the inhibition at 1 µM was 8%. In series [3] (setting [9]), the NO synthase activity is 304 nmol/mg/min and the inhibition at 3 µM came out at 9%. Moreover, in series [3] (setting [10]), the NO synthase activity came to 316 nmol/mg/min and the inhibition at 10 µM is 5%. Besides, in series [3] (setting [11]), the NO synthase activity turned out to be 319 nmol/mg/min and the inhibition at 30 µM is 4%. For the same compound, in series [3] (setting [12]), the NO synthase activity is given as 274 nmol/mg/min and the inhibition at 100 µM stood at 18%. In [3] (setting [13]), the NO synthase activity came out at 136 nmol/mg/min and the inhibition at 1000 µM was 60%.
`C[C@H](O)[C@H](O)C1=Nc2c(N)nc(N)nc2NC1` [(IV), 2,4-diamino-7,8-dihydro-6-(L-erythro-1,2-dihydroxylpropyl)pteridine]: the “affinity for nitric oxide synthase relative to tetrahydrobiopterin (fold higher)” value in series [1] is given as “about 20 -fold”; in series [4], “about 2.5 -fold”. Besides, the NO synthase activity in series [3] (setting [6]) came to 294 nmol/mg/min; in [3] (setting [7]) it was 283 nmol/mg/min; in [3] (setting [8]), 242 nmol/mg/min; in series [3] (setting [10]) it was 110 nmol/mg/min; in series [3] (setting [12]) it was 48 nmol/mg/min; in [3] (setting [13]), 25 nmol/mg/min. Besides, the inhibition at 100 µM in series [3] (setting [12]) is 82%.

Usually inhibition stands for the relative decrease from the control value, in per cent.
